Reference: patent US8357117B2, “Device and method for delivering an agent into breast milk while breastfeeding” (Family Health International, priority 2008, dated 2013)

Experiment: release of SDS from dried SDS-dipped non-woven disk in 10 ml syringe, water gravity fed
Format: physicochemical
Conditions: non-woven dipped in 20% SDS solution, 3 mm thick disk, no excipients
Description: It was an unexpected result that, without the use of any excipients, a non-woven material could be dipped into an SDS solution to achieve significant loading and release of SDS. Specifically, a piece of soft non-woven material was dipped in a 20% solution of SDS, then dried on a drying rack. After drying, the material was hard and stiff, and felt like a piece of cardboard. It appeared unlikely that the resulting material would even be permeable to water.

SMILES: CCCCCCCCCCCCOS(=O)(=O)[O-].[Na+] [SDS, sodium dodecyl sulphate]
- release of SDS into water: rapidly released
